Measurements reported in patent US9966622B2, “Small organic molecule based flow battery” (President and Fellows of Harvard College, priority 2012, dated 2018).
Values after ≈ are worked out from the molar mass of the structure shown. Values joined by “and” are separate entries in the source; they are usually repeats but may differ in a detail not shown here. Equal values may be shown once. Read-outs that look alike come from different tables or passages of the source.

Experiments:
[1] = Half-cell cyclic voltammetry of quinones, E^0 (Example 13); format: physicochemical; settings: 1 mM in 1 M sulfuric acid, pH 0, glassy carbon, 25 mV/s
Method: 1 mM solutions of the quinones listed in the following table were prepared in 1 M sulfuric acid solution. The pH of the solutions was 0. Half-cell electrochemical data were recorded using a working electrode consisting of a flat 3 mm diameter disk of glassy carbon, a coiled platinum wire as a counter electrode, and a Ag/AgCl reference electrode. Cyclic voltammograms were recorded using sweep rates of 25 mV/s.

[2] = Rotating disk electrode measurements of AQDS (Example 4); format: physicochemical
Method: FIG. 5B is a graph of rotating disk electrode measurements using a glassy carbon electrode in 1 M H2SO4 at eleven rotation rates ranging from 200 (red) to 3600 rpm (dk. green).
FIG. 6 is a Levich plot (current vs. rotation rate) of 1 mM AQDS in 1 M H2SO4. Best fit line has a slope of 0.453(2) μA s^1/2 rad^−1/2.
FIG. 7 is a Koutecký-Levich plot (current^−1 vs. rotation rate^−1/2).
FIG. 8 is a Tafel plot (overpotential vs. log(current)) constructed using the current response in the absence of mass-transport at low overpotentials, extrapolated from the zero-intercept of FIG. 7 (infinite rotation rate). Best fit line is the function y=62(x+4.32). This yields α=0.474(2) and k0=7.2(5)×10^−3 cm s^−1.
The glassy carbon disk in Example 3 was rotated at a variety of rates yields mass-transport limited currents from which the AQDS diffusion coefficient (D=3.8(1)×10^−6 cm^2 s^−1)(compare D in [38]) and kinetic reduction rate constant could be determined (FIGS. 5B, 6, 7, and 8). […] This rate constant was faster than that found for many other species used in flow cells such as V^3+/V^2+, Br2/Br^−, and S4^2−/S2^2− (see Table 2 in [40]). The electrochemical reversibility of the two-electron redox reaction was confirmed by the slope of the Tafel plot (FIG. 8), which gave the transfer coefficient α=0.474, which is close to the value of 0.5 expected for an ideally reversible reaction.

Aqueous solubility = format: physicochemical; settings: pH 0, aqueous buffer
[3] = Pourbaix diagram of AQDS redox couple vs. pH (Example 5); format: physicochemical
Method: FIG. 5C is a Pourbaix diagram of AQDS. Solid lines indicate slopes of −59 mV/pH, −30 mV/pH, and 0 mV/pH, corresponding to two-, one-, and zero-proton processes respectively. Dashed lines linearly extrapolate the one- and zero-proton processes to give E^0 values of 18 mV (2 e^−/1 H^+) and −296 mV (2 e^−/0 H^+).
To further understand the AQDS redox behavior, we generated a Pourbaix diagram (FIG. 5C) of the equilibrium potential of the AQDS redox couple vs. pH. Aqueous 1 mM solutions of AQDS disodium salt were prepared and pH buffered using the following chemicals: sulfuric acid (1 M, pH 0), HSO4^−/SO4^2− (0.1 M, pH 1-2), AcOH/AcO^− (0.1 M, pH 2.65-5), H2PO4^−/HPO4^2− (0.1 M, pH 5.3-8), HPO4^2−/PO4^3− (0.1 M, pH 9.28-11.52), and KOH (0.1 M, pH 13). The pH of each solution was adjusted with 1 M H2SO4 or 0.1 M KOH solutions. […] In more basic conditions (7<pH<11), a two-electron, one-proton process occurred, giving a 30 mV/pH slope. The potential became pH-independent at values greater than 11, which indicated a two-electron, zero-proton process.

[4] = Stability of AQDS to Br2 / HBr by NMR (Example 12); format: physicochemical; settings: for stability to 2 M / concentrated HBr and Br2: heated to 100° C. for 48 h (two days)
Method: 50 mg of 9,10-anthraquinone-2,7-disulfonic acid was dissolved in 0.4 mL of D2O was treated with 100 μL of Br2. The ^1H and ^13C NMR spectra (FIGS. 17A-B and 18A-B) were unchanged from the starting material after standing for 20 hours at 25° C. 50 mg of AQDS was then treated with 1 mL of concentrated HBr and 100 μL of Br2. The reaction was heated to 100° C. for 48 h and evaporated to dryness at that temperature. The resulting solid was fully dissolved in D2O giving unchanged and ^1H and ^13C NMR (FIGS. 17C and 18C); however, the ^1H NMR reference was shifted due to residual acid.

[5] = Cyclic voltammetry of AQDS on glassy carbon (Example 3); format: physicochemical; settings: 1 mM in 1 M sulfuric acid, glassy carbon disc
Excerpt: AQDS was subjected to half-cell electrochemical measurements. […] The peak separation of 34 mV was close to the 59 mV/n, where n was the number of electrons involved, expected for a two-electron process.

[6] = Half-cell cyclic voltammetry compared with AQDS (Examples 6 and 7); format: physicochemical; settings: 1 mM in 1 M H2SO4; listed as 1,8-(OH)2-AQDS
[7] = cited from earlier work
[8] = aqueous, no source given; cited from earlier work
[9] = Stability of quinone form in aqueous solution, cyclic voltammetry of catechol (Example 1); format: physicochemical; settings: 1 N H2SO4
Excerpt: 1 molal 1,2-ortho-benzohydroquinone (catechol) was oxidized in 1 N H2SO4 at a flat Pt electrode, obtaining the cyclic voltammetry curves shown in FIG. 3A. The sweep starts at (0.2 V, 0 mA/cm^2) and proceeds at 25 mV/s to the right. At about 600 mV vs. Ag/AgCl (the known E^0 is 795 mV vs. SHE), the current density increases as catechol is oxidized to the orthoquinone form. The oxidative current density peaks at about 150 mA/cm^2. The peak and downturn are caused by reactant depletion in a quiescent (non-flowing, non-stirred) electrolyte. In a test at a higher concentration of 3.9 molal (FIG. 3B), we observe asymmetric oxidation and reduction peaks, achieving current densities above 500 mA/cm^2 for the former. The asymmetric shape of the curve in FIG. 3B arises because the quinone form is unstable in aqueous solution. In addition the limited solubility of ortho-benzoquinone (0.06 M) compared to its reduced form precludes symmetric behavior at high concentration.

Compound	Standard Reduction Potential E^0 in Volts vs. the standard hydrogen electrode (SHE) [1]	further results
2-bromo-1,4-naphthoquinone-3-sulfonic acid [Entry 14]	0.371 Volts	–
O=C1c2ccc(S(=O)(=O)O)cc2C(=O)c2cc(S(=O)(=O)O)ccc21 [Entry 1, 9,10-anthraquinone-2,7-disulfonic acid]	0.213 Volts	diffusion coefficient D ([2]; 1 mM in 1 M H2SO4, rotating glassy carbon disk): 3.8(1)×10^−6 cm^2 s^−1; kinetic reduction rate constant k0 ([2]; reduction on glassy carbon, 1 M H2SO4): 7.2(5)×10^−3 cm s^−1; solubility (Aqueous solubility): ~1000 mM (≈ 368 mg/mL); E^0 (2 e^−/1 H^+), extrapolated ([3]; linear extrapolation of one-proton process): 18 mV; E^0 (2 e^−/0 H^+), extrapolated ([3]; linear extrapolation of zero-proton process): −296 mV; stability to 2 M / concentrated HBr and Br2 [4]: no reaction; stability to 2 M / concentrated HBr and Br2 ([4]; listed as 9,10-anthraquinone-2,7-disulfonate): stable; stability to Br2 (1H and 13C NMR spectra) ([4]; in D2O, 20 hours at 25° C.): unchanged; peak separation (cyclic voltammetry) [5]: 34 mV
O=C1c2cccc(S(=O)(=O)O)c2C(=O)c2c1cccc2S(=O)(=O)O [Entry 3, 9,10-anthraquinone-1,8-disulfonic acid]	0.182 Volts	–
O=C1c2cccc(S(=O)(=O)O)c2C(=O)c2cccc(S(=O)(=O)O)c21 [Entry 4, 9,10-anthraquinone-1,5-disulfonic acid]	0.223 Volts	–
O=C1c2ccccc2C(=O)c2cc(S(=O)(=O)O)ccc21 [Entry 5, 9,10-anthraquinone-2-sulfonic acid]	0.171 Volts	–
O=C1c2ccccc2C(=O)c2cc(CS(=O)(=O)O)c(CS(=O)(=O)O)cc21 [Entry 6, 9,10-anthraquinone-2,3-dimethanesulfonic acid]	0.114 Volts	–
O=C1c2ccc(S(=O)(=O)O)c(O)c2C(=O)c2ccc(S(=O)(=O)O)c(O)c21 [Entry 8, 1,5-dihydroxy-9,10-anthraquinone-2,6-disulfonic acid]	0.116 Volts	–
O=C1c2ccccc2C(=O)c2c(O)c(S(=O)(=O)O)cc(O)c21 [Entry 9, 1,4-dihydroxy-9,10-anthraquinone-2-sulfonic acid]	0.094 Volts	–
O=C1C=C(S(=O)(=O)O)C(=O)c2ccccc21 [Entry 12, 1,4-naphthoquinone-2-sulfonic acid]	0.356 Volts	–
Oc1ccccc1O [catechol, 1,2-ortho-benzohydroquinone]	–	known E^0 ([7]; vs. SHE): 795 mV
O=C1C=CC=CC1=O [ortho-benzoquinone]	–	solubility [8]: 60 mM (≈ 6.49 mg/mL); stability in aqueous solution [9]: unstable
CC1=C(C)C(=O)C(C)=C(C)C1=O [tetramethylbenzoquinone]	–	redox potential ([7]; aqueous, literature values [28], [29]): 0.040 V and 0.068 V

The next lines start with results.

Standard Reduction Potential E^0 in Volts vs. the standard hydrogen electrode (SHE) [1]	Compound	further results
0.212 Volts	O=C1c2ccc(S(=O)(=O)O)cc2C(=O)c2ccc(S(=O)(=O)O)cc21 [Entry 2, 9,10-anthraquinone-2,6-disulfonic acid]	–
0.118 Volts	O=C1c2ccc(S(=O)(=O)O)c(O)c2C(=O)c2c1ccc(S(=O)(=O)O)c2O [Entry 7, 1,8-dihydroxy-9,10-anthraquinone-2,7-disulfonic acid]	lowering of reduction potential relative to AQDS [6]: ~100 mV and 95 mV
0.088 Volts	O=C1c2ccccc2C(=O)c2c(O)c(S(=O)(=O)O)c(O)c(O)c21 [Entry 10, 1,3,4-trihydroxy-9,10-anthraquinone-2-sulfonic acid]	–
0.423 Volts	O=C1C=C(S(=O)(=O)O)c2ccccc2C1=O [Entry 11, 1,2-naphthoquinone-4-sulfonic acid]	–
0.368 Volts	O=C1C(Cl)=C(S(=O)(=O)O)C(=O)c2ccccc21 [Entry 13, 2-chloro-1,4-naphthoquinone-3-sulfonic acid]	–
